Measured values reported in patent publication US10364247B2, “Preparation and use of novel protein kinase inhibitors” (Ruijin Hospital Affiliated to Shanghai Jiao Tong University …, priority 2015, dated 2019).

Key:
Format in all cases: cell-based, murine
BaF3-BCR/ABL = target: T1, BaF3-BCR/ABL (Homo sapiens, UniProt P00519); assay: Antiproliferative activity, kinase-dependent Ba/F3 cells (MTT/MTS); conditions: 48 hours, cell viability, read-out: BCR/ABL IC50
T1 construct: fused on or other part: P11274 (Breakpoint cluster region protein)
Method in brief: (§1)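 Murine Ba/F3 cells transformed with BCR/ABL (p210) or BCR/ABL-T315I, grown in RPMI/10% FCS without IL3, were seeded at 20,000 cells/well. Viability was read by MTT/MTS. IC50 is the concentration reducing viability to 50% of DMSO vehicle control.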

BaF3-BCR/ABL-T315I = target: T2, BaF3-BCR/ABL-T315I (Homo sapiens, UniProt P00519, T315I, cells depend on it); assay: as above; conditions: 48 hours, cell viability, read-out: BCR/ABL T315I IC50
T2 construct: fused on or other part: P11274 (Breakpoint cluster region protein)
Method in brief: as §1

BaF3-EML4-ALK = target: T3, BaF3-EML4-ALK (Homo sapiens, UniProt Q9UM73); assay: as above; conditions: 48 hours, cell viability, read-out: EML4-ALK IC50
T3 construct: fused on or other part: Q9HC35 (Echinoderm microtubule-associated protein-like 4)
Method in brief: (§2)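 Murine Ba/F3 cells transformed with the indicated TEL- or EML4-fusion kinases, seeded at 20,000 cells/well in RPMI/10% FCS. Viability by MTT/MTS; IC50 as concentration reducing viability to 50% of DMSO vehicle control.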

BaF3-TEL-HCK = target: T4, BaF3-TEL-HCK (Homo sapiens, UniProt P08631); assay: as above; conditions: 48 hours, cell viability, read-out: Tel-HCK IC50
T4 construct: fused on or other part: P41212 (Transcription factor ETV6)
T4 sequence (P08631 whole entry, change not shown, the tested form may be a part): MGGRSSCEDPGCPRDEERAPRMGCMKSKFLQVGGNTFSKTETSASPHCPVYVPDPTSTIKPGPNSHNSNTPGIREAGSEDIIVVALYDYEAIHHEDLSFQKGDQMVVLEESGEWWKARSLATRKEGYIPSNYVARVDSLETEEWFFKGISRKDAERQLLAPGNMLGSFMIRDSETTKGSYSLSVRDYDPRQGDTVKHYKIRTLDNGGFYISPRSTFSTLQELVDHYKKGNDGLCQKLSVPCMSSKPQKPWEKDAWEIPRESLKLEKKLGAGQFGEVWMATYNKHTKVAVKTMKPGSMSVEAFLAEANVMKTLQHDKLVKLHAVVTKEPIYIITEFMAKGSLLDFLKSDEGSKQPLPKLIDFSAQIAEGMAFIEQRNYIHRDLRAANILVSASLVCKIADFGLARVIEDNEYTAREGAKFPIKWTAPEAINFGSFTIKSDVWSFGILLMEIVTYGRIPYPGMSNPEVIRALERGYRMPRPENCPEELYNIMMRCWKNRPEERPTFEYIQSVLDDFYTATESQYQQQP
Method in brief: as §2

BaF3-TEL-INSR = target: T5, BaF3-TEL-INSR (Homo sapiens, UniProt P06213); assay: as above; conditions: 48 hours, cell viability, read-out: Tel-INSR IC50
T5 construct: fused on or other part: P41212 (Transcription factor ETV6)
T5 sequence (P06213 whole entry, stated change not applied, the tested form may be a part): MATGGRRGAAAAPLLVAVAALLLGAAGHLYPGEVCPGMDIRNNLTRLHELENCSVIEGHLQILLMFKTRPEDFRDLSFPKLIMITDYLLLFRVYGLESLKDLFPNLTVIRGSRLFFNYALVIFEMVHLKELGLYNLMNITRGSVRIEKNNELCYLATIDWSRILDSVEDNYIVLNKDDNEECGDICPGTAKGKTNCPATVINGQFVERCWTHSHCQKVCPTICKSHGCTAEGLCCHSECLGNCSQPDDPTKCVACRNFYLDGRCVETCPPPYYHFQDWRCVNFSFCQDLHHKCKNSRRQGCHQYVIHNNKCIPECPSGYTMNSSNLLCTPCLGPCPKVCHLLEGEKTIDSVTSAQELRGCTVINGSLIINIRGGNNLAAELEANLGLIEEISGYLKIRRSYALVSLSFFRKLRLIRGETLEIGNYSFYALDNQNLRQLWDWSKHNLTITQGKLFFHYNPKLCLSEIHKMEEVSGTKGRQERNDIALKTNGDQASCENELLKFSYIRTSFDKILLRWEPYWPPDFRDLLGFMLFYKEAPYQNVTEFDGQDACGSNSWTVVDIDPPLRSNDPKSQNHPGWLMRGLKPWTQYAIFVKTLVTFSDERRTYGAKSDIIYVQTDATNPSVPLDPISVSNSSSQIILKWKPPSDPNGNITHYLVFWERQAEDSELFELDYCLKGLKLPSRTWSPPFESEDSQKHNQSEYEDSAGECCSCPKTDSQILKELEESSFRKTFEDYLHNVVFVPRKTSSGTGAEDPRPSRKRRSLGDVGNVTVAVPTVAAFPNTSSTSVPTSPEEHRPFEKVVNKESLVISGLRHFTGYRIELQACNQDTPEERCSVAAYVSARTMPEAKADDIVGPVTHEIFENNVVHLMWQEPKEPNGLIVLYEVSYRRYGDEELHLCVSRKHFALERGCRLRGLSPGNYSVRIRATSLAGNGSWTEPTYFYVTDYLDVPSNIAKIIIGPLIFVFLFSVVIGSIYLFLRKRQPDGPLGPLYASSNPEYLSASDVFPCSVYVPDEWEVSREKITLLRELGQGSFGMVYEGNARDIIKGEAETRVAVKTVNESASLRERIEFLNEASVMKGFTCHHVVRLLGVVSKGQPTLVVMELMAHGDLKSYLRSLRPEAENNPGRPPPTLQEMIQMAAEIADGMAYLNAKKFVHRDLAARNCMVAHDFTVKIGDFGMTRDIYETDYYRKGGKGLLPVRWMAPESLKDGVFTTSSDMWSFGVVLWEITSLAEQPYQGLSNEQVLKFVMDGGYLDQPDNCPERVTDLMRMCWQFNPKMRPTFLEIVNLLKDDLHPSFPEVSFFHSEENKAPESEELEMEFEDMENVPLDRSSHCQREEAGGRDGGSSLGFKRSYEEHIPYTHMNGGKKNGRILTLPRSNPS
Method in brief: as §2

BaF3-TEL-LYN = target: T6, BaF3-TEL-LYN (Homo sapiens, UniProt P07948); assay: as above; conditions: 48 hours, cell viability, read-out: tel-LYN IC50
T6 construct: fused on or other part: P41212 (Transcription factor ETV6)
T6 sequence (P07948 whole entry, change not shown, the tested form may be a part): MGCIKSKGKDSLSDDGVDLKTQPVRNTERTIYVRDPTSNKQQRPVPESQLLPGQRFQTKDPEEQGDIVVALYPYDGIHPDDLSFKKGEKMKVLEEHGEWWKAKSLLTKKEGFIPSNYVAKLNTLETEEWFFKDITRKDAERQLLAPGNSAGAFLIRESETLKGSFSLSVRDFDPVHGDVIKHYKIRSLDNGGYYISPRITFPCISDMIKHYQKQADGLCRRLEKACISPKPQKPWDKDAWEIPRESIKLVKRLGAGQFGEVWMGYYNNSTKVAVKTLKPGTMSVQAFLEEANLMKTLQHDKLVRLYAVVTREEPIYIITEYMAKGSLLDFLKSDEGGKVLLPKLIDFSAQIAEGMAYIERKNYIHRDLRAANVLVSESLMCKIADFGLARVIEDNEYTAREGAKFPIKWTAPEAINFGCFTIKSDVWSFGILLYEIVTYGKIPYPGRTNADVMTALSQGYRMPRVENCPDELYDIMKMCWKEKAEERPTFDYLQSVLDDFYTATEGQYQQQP
Method in brief: as §2

BaF3-TEL-TIE1 = target: T7, BaF3-TEL-TIE1 (Homo sapiens, UniProt P35590); assay: as above; conditions: 48 hours, cell viability, read-out: tel-TIE1 IC50
T7 construct: fused on or other part: P41212 (Transcription factor ETV6)
T7 sequence (P35590 whole entry, change not shown, the tested form may be a part): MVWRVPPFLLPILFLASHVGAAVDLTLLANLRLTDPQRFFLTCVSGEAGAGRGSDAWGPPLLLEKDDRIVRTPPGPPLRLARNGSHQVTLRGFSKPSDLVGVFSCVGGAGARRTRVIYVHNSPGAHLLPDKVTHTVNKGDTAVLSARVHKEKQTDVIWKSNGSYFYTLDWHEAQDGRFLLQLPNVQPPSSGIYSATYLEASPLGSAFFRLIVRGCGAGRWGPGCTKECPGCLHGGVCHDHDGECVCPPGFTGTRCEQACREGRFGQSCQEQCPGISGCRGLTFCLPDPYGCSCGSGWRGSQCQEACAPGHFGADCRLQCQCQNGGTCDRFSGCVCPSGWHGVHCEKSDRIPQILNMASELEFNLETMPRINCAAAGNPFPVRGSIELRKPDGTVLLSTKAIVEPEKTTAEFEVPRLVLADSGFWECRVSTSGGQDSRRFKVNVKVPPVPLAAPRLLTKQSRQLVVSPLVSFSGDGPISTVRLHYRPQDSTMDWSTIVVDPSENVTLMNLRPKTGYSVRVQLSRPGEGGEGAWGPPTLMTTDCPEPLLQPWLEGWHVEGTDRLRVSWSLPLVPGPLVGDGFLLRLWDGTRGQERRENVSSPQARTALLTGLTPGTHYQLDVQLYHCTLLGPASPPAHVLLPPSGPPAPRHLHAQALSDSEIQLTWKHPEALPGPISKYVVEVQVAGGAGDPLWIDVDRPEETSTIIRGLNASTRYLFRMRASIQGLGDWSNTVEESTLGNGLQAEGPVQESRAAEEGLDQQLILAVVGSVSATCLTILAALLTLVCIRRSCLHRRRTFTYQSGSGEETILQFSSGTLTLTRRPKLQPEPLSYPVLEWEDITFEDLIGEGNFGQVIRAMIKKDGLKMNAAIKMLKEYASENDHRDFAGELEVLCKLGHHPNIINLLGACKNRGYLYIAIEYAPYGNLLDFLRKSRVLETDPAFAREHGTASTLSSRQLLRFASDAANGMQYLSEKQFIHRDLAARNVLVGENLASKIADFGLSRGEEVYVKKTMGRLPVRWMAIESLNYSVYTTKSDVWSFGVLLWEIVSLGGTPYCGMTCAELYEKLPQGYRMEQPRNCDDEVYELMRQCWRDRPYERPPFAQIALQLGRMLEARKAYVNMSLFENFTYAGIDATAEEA
Method in brief: as §2

BaF3-KRASD12 = assay: Oncogenic RAS dependent cell proliferation (CellTiter Glo); conditions: Mus musculus, BaF3-KRASD12 cells, 48 hours, read-out: KRas-BaF3 IC50
Method in brief: (§3)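 BaF/3 cells transformed with NRASD12 or KRASD12, plus parental BaF/3, seeded at 5000 cells/well. Viability read by CellTiter-Glo luminescence, reagent diluted 1:4 in PBS, with vehicle and cell-free background controls.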

BaF3-NRASD12 = assay: as above; conditions: Mus musculus, BaF3-NRASD12 cells, 48 hours, read-out: NRas-BaF3 IC50
Method in brief: as §3

Wt-BaF3 = assay: Parental Ba/F3 cell proliferation (CellTiter Glo); conditions: Mus musculus, parental BaF/3 cells, 48 hours
Method in brief: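 Untransformed murine Ba/F3 cells, kept on 15% WEHI conditioned medium as IL3 source, were seeded at 5000 cells/well with compound. Viability was read by luminescence using CellTiter Glo diluted 1:4 in PBS, with no-cell background and vehicle controls.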

Row | Structure (SMILES) | GI50 (BaF3-BCR/ABL) | GI50 (BaF3-BCR/ABL-T315I) | GI50 (BaF3-EML4-ALK) | GI50 (BaF3-TEL-HCK) | GI50 (BaF3-TEL-INSR) | GI50 (BaF3-TEL-LYN) | GI50 (BaF3-TEL-TIE1) | IC50 (BaF3-KRASD12) | IC50 (BaF3-NRASD12) | IC50 (Wt-BaF3)
1 | CCN1CN(c2cc(NC(=O)c3cccc(C(F)(F)F)c3)ccc2C)Cc2cnc(Nc3ccc(C)nc3)nc21 [IB-1, N-(3-(1-ethyl-7-((6-methylpyridin-3-yl)amino)-1,4-dihydropyrimido[4,5-d]pyrimidin-3(2H)-yl)-4-methylphenyl)-3-(trifluoromethyl)benzamide] | 5.96 nM | 881 nM | 2640 nM | 327 nM | 3230 nM | 1260 nM | 1290 nM | 2110 nM | 1500 nM | 4840 nM
2 | Cc1ccc(Nc2ncc3c(n2)N(C2CC2)CN(c2cc(NC(=O)c4cccc(C(F)(F)F)c4)ccc2C)C3)cn1 [IB-2, N-(3-(1-cyclopropyl-7-((6-methylpyridin-3-yl)amino)-1,4-dihydropyrimido[4,5-d]pyrimidin-3(2H)-yl)-4-methylphenyl)-3-(trifluoromethyl)benzamide] | 53.8 nM | 2900 nM | 3130 nM | 2090 nM | 2160 nM | 1200 nM | 1090 nM | 1780 nM | 1400 nM | 6030 nM
